Source: ChEMBL document CHEMBL3352350, “Syntheses and structure-activity relationships in cytotoxicities of 13-substituted quaternary coptisine derivatives” (Eur J Med Chem, 2014)

Experiments:
[1] = Cytotoxicity against human C33A cells assessed as growth inhibition rate after 96 hrs by MTT assay; assay type: functional, cell-based; conditions: C-33-A
A549 [2] = assay: Cytotoxicity against human A549 cells assessed as growth inhibition rate after 96 hrs by MTT assay; assay type: functional, cell-based; conditions: A549, 96 h
A549 [3] = assay: Cytotoxicity against human A549 cells assessed as growth inhibition rate at 0.1 to 100 umol/L after 96 hrs by MTT assay; assay type: functional
[4] = Cytotoxicity against human Bel7402 cells assessed as growth inhibition rate after 96 hrs by MTT assay; assay type: functional, cell-based; conditions: Bel-7402, 96 h
[5] = Cytotoxicity against human C33A cells assessed as growth inhibition rate at 0.1 to 100 umol/L after 96 hrs by MTT assay; assay type: functional, C-33-A
[6] = Cytotoxicity against human HCT8 cells assessed as growth inhibition rate after 96 hrs by MTT assay; assay type: functional, cell-based; conditions: HCT-8, 96 h
[7] = Cytotoxicity against human HCT8 cells assessed as growth inhibition rate at 0.1 to 100 umol/L after 96 hrs by MTT assay; assay type: functional, HCT-8
[8] = Cytotoxicity against human Bel7402 cells assessed as growth inhibition rate at 0.1 to 100 umol/L after 96 hrs by MTT assay; assay type: functional, Bel-7402
C-33-A = assay: Ratio of 5-fluorouracil IC50 to compound IC50 for human C33A cells assessed as growth inhibition rate after 96 hrs by MTT assay; assay type: functional
Bel-7402 = assay: Ratio of 5-fluorouracil IC50 to compound IC50 for human Bel7402 cells assessed as growth inhibition rate after 96 hrs by MTT assay; assay type: functional
A549 [9] = assay: Ratio of 5-fluorouracil IC50 to compound IC50 for human A549 cells assessed as growth inhibition rate after 96 hrs by MTT assay; assay type: functional
HCT-8 = assay: Ratio of 5-fluorouracil IC50 to compound IC50 for human HCT8 cells assessed as growth inhibition rate after 96 hrs by MTT assay; assay type: functional

Question: What does the source list for `C1=C2c3cc4c(cc3CCN2Cc2c1ccc1c2OCO1)OCO4`?
Answer: IC50 [1]: > 5 µg/mL; IC50 (A549 [2]): > 5 µg/mL; growth inhibition (GI) (A549 [3]): 32.09%; IC50 [4]: > 5 µg/mL; growth inhibition (GI) [5]: -10.65%; IC50 [6]: > 5 µg/mL; growth inhibition (GI) [7]: 30.88%; growth inhibition (GI) [8]: 27.27%

Question: Which results are given for `Cc1c2[n+](cc3c4c(ccc13)OCO4)CCc1cc3c(cc1-2)OCO3.[Cl-]`?
Answer: IC50 [1]: > 5 µg/mL; IC50 (A549 [2]): > 5 µg/mL; growth inhibition (GI) (A549 [3]): 42.83%; IC50 [4]: > 5 µg/mL; growth inhibition (GI) [5]: -7.22%; IC50 [6]: > 5 µg/mL; growth inhibition (GI) [7]: 35.62%; growth inhibition (GI) [8]: 2.43%

Question: With `CCc1c2[n+](cc3c4c(ccc13)OCO4)CCc1cc3c(cc1-2)OCO3.[Cl-]` as the compound, how does the IC50 [1] read?
Answer: > 5 µg/mL

Question: What about the IC50 (A549 [2]) of the same compound?
Answer: > 5 µg/mL

Question: What about the “growth inhibition (GI)” value (A549 [3]) of the same compound?
Answer: 41.74%

Question: What about the IC50 [4] of the same compound?
Answer: > 5 µg/mL

Question: And the “growth inhibition (GI)” value [5]?
Answer: -7.45%

Question: And the IC50 [6]?
Answer: > 5 µg/mL

Question: What about the “growth inhibition (GI)” value [7] of the same compound?
Answer: 39.7%

Question: What about the “growth inhibition (GI)” value [8] of the same compound?
Answer: 10.19%

Question: Which IC50 [1] does the source give for `CCCc1c2[n+](cc3c4c(ccc13)OCO4)CCc1cc3c(cc1-2)OCO3.[Cl-]` here?
Answer: > 5 µg/mL

Question: What about the IC50 (A549 [2]) of the same compound?
Answer: > 5 µg/mL

Question: And the “growth inhibition (GI)” value (A549 [3])?
Answer: 45.12%

Question: And the IC50 [4]?
Answer: > 5 µg/mL

Question: And the “growth inhibition (GI)” value [5]?
Answer: -7.69%

Question: What about the IC50 [6] of the same compound?
Answer: > 5 µg/mL

Question: What about the “growth inhibition (GI)” value [7] of the same compound?
Answer: 40.68%

Question: What about the “growth inhibition (GI)” value [8] of the same compound?
Answer: -23.7%

Question: With `CCCCc1c2[n+](cc3c4c(ccc13)OCO4)CCc1cc3c(cc1-2)OCO3.[Cl-]` as the compound, how does the IC50 [1] read?
Answer: > 5 µg/mL

Question: What about the IC50 (A549 [2]) of the same compound?
Answer: > 5 µg/mL

Question: What about the “growth inhibition (GI)” value (A549 [3]) of the same compound?
Answer: 32.79%

Question: What about the IC50 [4] of the same compound?
Answer: > 5 µg/mL

Question: What about the “growth inhibition (GI)” value [5] of the same compound?
Answer: -6.66%

Question: And the IC50 [6]?
Answer: > 5 µg/mL

Question: And the “growth inhibition (GI)” value [7]?
Answer: 32.57%

Question: What about the “growth inhibition (GI)” value [8] of the same compound?
Answer: 21.81%

Question: Which results are given for `CCCCCc1c2[n+](cc3c4c(ccc13)OCO4)CCc1cc3c(cc1-2)OCO3.[Cl-]`?
Answer: IC50 [1]: > 5 µg/mL; IC50 (A549 [2]): > 5 µg/mL; growth inhibition (GI) (A549 [3]): 49.34%; IC50 [4]: > 5 µg/mL; growth inhibition (GI) [5]: -5.79%; IC50 [6]: 6930 nM; growth inhibition (GI) [7]: 59.02%; growth inhibition (GI) [8]: 5.82%

Question: What does the source list for `CC(C)CCc1c2[n+](cc3c4c(ccc13)OCO4)CCc1cc3c(cc1-2)OCO3.[Cl-]`?
Answer: IC50 [1]: > 5 µg/mL; IC50 (A549 [2]): > 5 µg/mL; growth inhibition (GI) (A549 [3]): 38.49%; IC50 [4]: > 5 µg/mL; growth inhibition (GI) [5]: 48.99%; IC50 [6]: > 5 µg/mL; growth inhibition (GI) [7]: 30.75%; growth inhibition (GI) [8]: -2.18%

Question: For `CCCCCCc1c2[n+](cc3c4c(ccc13)OCO4)CCc1cc3c(cc1-2)OCO3.[Cl-]`, which IC50 [1] is on record?
Answer: > 5 µg/mL

Question: And the IC50 (A549 [2])?
Answer: 5570 nM

Question: And the “growth inhibition (GI)” value (A549 [3])?
Answer: 60.71%

Question: And the IC50 [4]?
Answer: 3050 nM

Question: What about the “growth inhibition (GI)” value [5] of the same compound?
Answer: 52.51%

Question: What about the IC50 [6] of the same compound?
Answer: 6550 nM

Question: What about the “growth inhibition (GI)” value [7] of the same compound?
Answer: 59.24%

Question: What about the “growth inhibition (GI)” value [8] of the same compound?
Answer: 74.26%

Question: With `CCCCCCCc1c2[n+](cc3c4c(ccc13)OCO4)CCc1cc3c(cc1-2)OCO3.[Cl-]` as the compound, how does the IC50 [1] read?
Answer: 6940 nM

Question: And the IC50 (A549 [2])?
Answer: 2580 nM

Question: What about the “growth inhibition (GI)” value (A549 [3]) of the same compound?
Answer: 71.89%

Question: And the IC50 [4]?
Answer: 1920 nM

Question: What about the “growth inhibition (GI)” value [5] of the same compound?
Answer: 63.75%

Question: And the IC50 [6]?
Answer: 5860 nM

Question: What about the “growth inhibition (GI)” value [7] of the same compound?
Answer: 61.02%

Question: What about the “growth inhibition (GI)” value [8] of the same compound?
Answer: 86.6%

Question: Which IC50 [1] does the source give for `CCCCCCCCc1c2[n+](cc3c4c(ccc13)OCO4)CCc1cc3c(cc1-2)OCO3.[Cl-]` here?
Answer: 7310 nM

Question: What about the IC50 (A549 [2]) of the same compound?
Answer: 1880 nM

Question: And the “growth inhibition (GI)” value (A549 [3])?
Answer: 73.99%

Question: And the IC50 [4]?
Answer: 1430 nM

Question: What about the “growth inhibition (GI)” value [5] of the same compound?
Answer: 63.28%

Question: What about the IC50 [6] of the same compound?
Answer: 3330 nM

Question: What about the “growth inhibition (GI)” value [7] of the same compound?
Answer: 65.54%

Question: And the “growth inhibition (GI)” value [8]?
Answer: 89.32%

Question: Which IC50 [1] does the source give for `CCCCCCCCCc1c2[n+](cc3c4c(ccc13)OCO4)CCc1cc3c(cc1-2)OCO3.[Cl-]` here?
Answer: > 5 µg/mL

Question: And the IC50 (A549 [2])?
Answer: > 5 µg/mL

Question: What about the “growth inhibition (GI)” value (A549 [3]) of the same compound?
Answer: 49.29%

Question: And the IC50 [4]?
Answer: > 5 µg/mL

Question: And the “growth inhibition (GI)” value [5]?
Answer: -16.26%

Question: And the IC50 [6]?
Answer: > 5 µg/mL

Question: And the “growth inhibition (GI)” value [7]?
Answer: 43.24%

Question: And the “growth inhibition (GI)” value [8]?
Answer: 43.46%

Question: Which IC50 [1] does the source give for `CCCCCCCCCCc1c2[n+](cc3c4c(ccc13)OCO4)CCc1cc3c(cc1-2)OCO3.[Cl-]` here?
Answer: 4310 nM

Question: What about the IC50 (A549 [2]) of the same compound?
Answer: 1830 nM

Question: And the “growth inhibition (GI)” value (A549 [3])?
Answer: 75.26%

Question: And the IC50 [4]?
Answer: 1430 nM

Question: What about the “growth inhibition (GI)” value [5] of the same compound?
Answer: 61.31%

Question: What about the IC50 [6] of the same compound?
Answer: 1810 nM

Question: What about the “growth inhibition (GI)” value [7] of the same compound?
Answer: 71.93%

Question: What about the “growth inhibition (GI)” value [8] of the same compound?
Answer: 89.98%

Question: For `CCCCCCCCCCCc1c2[n+](cc3c4c(ccc13)OCO4)CCc1cc3c(cc1-2)OCO3.[Cl-]`, which IC50 [1] is on record?
Answer: 1570 nM

Question: What about the IC50 (A549 [2]) of the same compound?
Answer: 610 nM

Question: And the “Ratio IC50” value (C-33-A)?
Answer: 3

Question: And the “Ratio IC50” value (Bel-7402)?
Answer: 2

Question: And the “growth inhibition (GI)” value (A549 [3])?
Answer: 94.28%

Question: What about the “Ratio IC50” value (A549 [9]) of the same compound?
Answer: 11

Question: What about the IC50 [4] of the same compound?
Answer: 1220 nM

Question: What about the “growth inhibition (GI)” value [5] of the same compound?
Answer: 86.84%

Question: And the IC50 [6]?
Answer: 820 nM

Question: What about the “growth inhibition (GI)” value [7] of the same compound?
Answer: 92.7%

Question: What about the “Ratio IC50” value (HCT-8) of the same compound?
Answer: 4

Question: And the “growth inhibition (GI)” value [8]?
Answer: 91.22%

Question: Which IC50 [1] does the source give for `CCCCCCCCCCCCc1c2[n+](cc3c4c(ccc13)OCO4)CCc1cc3c(cc1-2)OCO3.[Cl-]` here?
Answer: 1430 nM

Question: What about the IC50 (A549 [2]) of the same compound?
Answer: 590 nM

Question: What about the “growth inhibition (GI)” value (A549 [3]) of the same compound?
Answer: 94.03%

Question: What about the IC50 [4] of the same compound?
Answer: 1320 nM

Question: And the “growth inhibition (GI)” value [5]?
Answer: 84.73%

Question: What about the IC50 [6] of the same compound?
Answer: 1030 nM

Question: What about the “growth inhibition (GI)” value [7] of the same compound?
Answer: 91.28%

Question: What about the “growth inhibition (GI)” value [8] of the same compound?
Answer: 87.63%
